Assay results published in US10689378B2, “Triazolopyridine compounds and uses thereof” (Novartis AG, priority 2016, dated 2020).
Like-named read-outs stand apart in the source and are kept apart here.

Tests used:
EED (1-441)-His protein = target: T1, EED (1-441)-His protein (Homo sapiens, UniProt O75530); assay: EED-H3K27Me3 peptide competition binding assay by AlphaScreen
T1 construct: 30 nM EED (1-441)-His protein
How it was run: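 Serially diluted compound (12 points, 3-fold) incubated 20 min with 30 nM EED(1-441)-His and 15 nM biotin-H3K27Me3(19-33) peptide in 25 mM HEPES pH 8, 0.02% Tween-20, 0.5% BSA. Ni-chelate acceptor/streptavidin donor beads (10 μg/mL each) added, 1 h rt dark; 615 nm emission normalized to controls, dose-response fit for IC50.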

[1] = target: wild type PRC2 (wtPRC2) complex (Homo sapiens, UniProt O75530); assay: EED LC-MS assay (SAH production by PRC2); format: biochemical
How it was run: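 LC-MS/MS readout of SAH (d4-SAH standard) after TFA quench gives PRC2 activity, normalized to controls and fitted to dose-response for IC50. Reaction: 12 nM EZH2/SUZ12/EED/Rbap48/AEBP complex, 1 μM SAM, 1.5 μM H3[21-44] peptide, 120 min rt, 20 min compound preincubation.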

[2] = tested on: H3K27 methylation in G401 cell; assay: ELISA (H3K27 methylation) assay in G401 cells; format: cell-based, human
How it was run: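 IC50 from dose-response fit of percent inhibition relative to DMSO, using H3K27me3/me2 ELISA signal (ECL) normalized to histone H3. Histones HCl-extracted after 48 h compound exposure of G401 cells at up to 20 μM, 8- or 12-point 3-fold series.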

[3] = read-out: (a) IC50, EED Alphascreen binding Qualified
[4] = read-out: (b) IC50, EED LC-MS Qualified
[5] = Homo sapiens, G-401, read-out: (c) IC50, ELISA Qualified
[6] = EED-H3K27Me3 peptide competition, AlphaScreen, read-out: (a) IC50 EED Alphascreen binding Qualified
[7] = PRC2 LC-MS assay, read-out: (b) IC50 EED LC-MS Qualified
[8] = Homo sapiens, G-401, H3K27 methylation ELISA, read-out: (c) IC50 ELISA Qualified
[9] = read-out: (a) IC50 EED Alphascreen binding Qualified
[10] = read-out: (b) IC50 EED LC-MS Qualified
[11] = Homo sapiens, G-401, read-out: (c) IC50 ELISA Qualified

T1 sequence (O75530 whole entry): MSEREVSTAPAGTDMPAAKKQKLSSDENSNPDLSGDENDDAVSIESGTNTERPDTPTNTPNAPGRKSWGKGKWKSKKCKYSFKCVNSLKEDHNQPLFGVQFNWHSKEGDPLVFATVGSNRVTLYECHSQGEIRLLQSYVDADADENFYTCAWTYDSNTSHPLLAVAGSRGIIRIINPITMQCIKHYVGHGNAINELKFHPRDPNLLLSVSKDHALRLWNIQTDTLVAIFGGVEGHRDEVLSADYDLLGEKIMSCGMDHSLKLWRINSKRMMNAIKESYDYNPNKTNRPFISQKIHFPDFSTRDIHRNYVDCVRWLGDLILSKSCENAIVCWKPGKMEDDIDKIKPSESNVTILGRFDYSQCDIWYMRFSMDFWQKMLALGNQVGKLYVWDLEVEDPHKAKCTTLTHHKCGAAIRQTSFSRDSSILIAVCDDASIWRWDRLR
Chain of wild type PRC2 (wtPRC2) complex (O75530 whole entry): as above
Chain of wild type PRC2 (wtPRC2) complex (Q15910 whole entry partner): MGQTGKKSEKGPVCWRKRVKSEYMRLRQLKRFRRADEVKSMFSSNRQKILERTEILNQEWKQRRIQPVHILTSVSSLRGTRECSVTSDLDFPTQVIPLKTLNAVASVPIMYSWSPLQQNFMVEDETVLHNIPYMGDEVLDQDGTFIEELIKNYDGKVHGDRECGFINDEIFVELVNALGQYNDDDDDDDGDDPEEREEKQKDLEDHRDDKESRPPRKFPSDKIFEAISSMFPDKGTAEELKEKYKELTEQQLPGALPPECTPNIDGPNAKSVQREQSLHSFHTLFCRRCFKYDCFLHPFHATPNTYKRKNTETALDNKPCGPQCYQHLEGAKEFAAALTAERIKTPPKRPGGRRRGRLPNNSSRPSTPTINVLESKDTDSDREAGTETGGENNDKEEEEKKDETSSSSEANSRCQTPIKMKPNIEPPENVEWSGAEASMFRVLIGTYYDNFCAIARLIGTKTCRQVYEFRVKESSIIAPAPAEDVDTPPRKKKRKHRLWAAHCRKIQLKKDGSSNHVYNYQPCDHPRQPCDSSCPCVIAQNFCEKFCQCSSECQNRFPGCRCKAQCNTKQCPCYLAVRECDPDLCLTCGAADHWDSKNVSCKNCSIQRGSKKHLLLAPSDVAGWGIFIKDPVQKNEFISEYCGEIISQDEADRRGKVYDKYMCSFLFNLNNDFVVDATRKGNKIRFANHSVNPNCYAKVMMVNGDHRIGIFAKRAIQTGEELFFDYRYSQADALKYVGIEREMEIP
Chain of wild type PRC2 (wtPRC2) complex (Q15022 whole entry partner): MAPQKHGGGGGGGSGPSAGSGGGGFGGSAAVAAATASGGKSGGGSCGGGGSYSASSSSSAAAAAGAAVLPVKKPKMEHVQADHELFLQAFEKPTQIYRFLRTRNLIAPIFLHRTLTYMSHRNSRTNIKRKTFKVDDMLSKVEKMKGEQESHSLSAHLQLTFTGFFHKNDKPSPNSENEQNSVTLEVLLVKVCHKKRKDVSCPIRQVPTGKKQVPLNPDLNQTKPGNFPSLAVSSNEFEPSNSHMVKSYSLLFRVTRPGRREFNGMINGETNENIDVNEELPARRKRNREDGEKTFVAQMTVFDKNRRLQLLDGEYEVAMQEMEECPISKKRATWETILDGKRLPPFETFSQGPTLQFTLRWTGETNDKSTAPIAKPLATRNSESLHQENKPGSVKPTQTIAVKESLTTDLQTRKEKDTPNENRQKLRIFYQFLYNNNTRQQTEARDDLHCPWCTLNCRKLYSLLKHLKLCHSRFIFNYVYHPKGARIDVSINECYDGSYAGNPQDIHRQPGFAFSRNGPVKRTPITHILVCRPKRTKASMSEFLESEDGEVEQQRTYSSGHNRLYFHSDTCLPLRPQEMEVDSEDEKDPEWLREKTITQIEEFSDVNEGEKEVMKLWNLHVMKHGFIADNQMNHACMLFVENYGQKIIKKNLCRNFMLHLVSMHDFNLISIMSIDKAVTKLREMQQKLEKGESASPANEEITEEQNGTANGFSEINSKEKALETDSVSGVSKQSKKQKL
Chain of wild type PRC2 (wtPRC2) complex (Q09028 whole entry partner): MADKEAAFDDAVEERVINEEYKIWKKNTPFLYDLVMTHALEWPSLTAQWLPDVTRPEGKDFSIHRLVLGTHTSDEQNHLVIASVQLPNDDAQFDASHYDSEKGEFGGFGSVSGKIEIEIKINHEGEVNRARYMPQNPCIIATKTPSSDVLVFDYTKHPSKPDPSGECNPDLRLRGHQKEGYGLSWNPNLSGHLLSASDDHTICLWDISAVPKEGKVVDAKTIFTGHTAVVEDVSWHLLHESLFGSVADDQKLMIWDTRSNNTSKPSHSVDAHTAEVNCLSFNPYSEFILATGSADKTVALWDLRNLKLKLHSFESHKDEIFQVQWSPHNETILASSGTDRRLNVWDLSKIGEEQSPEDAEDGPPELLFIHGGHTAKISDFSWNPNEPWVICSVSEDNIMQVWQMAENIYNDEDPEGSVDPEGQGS
Chain of wild type PRC2 (wtPRC2) complex (Q6ZN18 whole entry partner): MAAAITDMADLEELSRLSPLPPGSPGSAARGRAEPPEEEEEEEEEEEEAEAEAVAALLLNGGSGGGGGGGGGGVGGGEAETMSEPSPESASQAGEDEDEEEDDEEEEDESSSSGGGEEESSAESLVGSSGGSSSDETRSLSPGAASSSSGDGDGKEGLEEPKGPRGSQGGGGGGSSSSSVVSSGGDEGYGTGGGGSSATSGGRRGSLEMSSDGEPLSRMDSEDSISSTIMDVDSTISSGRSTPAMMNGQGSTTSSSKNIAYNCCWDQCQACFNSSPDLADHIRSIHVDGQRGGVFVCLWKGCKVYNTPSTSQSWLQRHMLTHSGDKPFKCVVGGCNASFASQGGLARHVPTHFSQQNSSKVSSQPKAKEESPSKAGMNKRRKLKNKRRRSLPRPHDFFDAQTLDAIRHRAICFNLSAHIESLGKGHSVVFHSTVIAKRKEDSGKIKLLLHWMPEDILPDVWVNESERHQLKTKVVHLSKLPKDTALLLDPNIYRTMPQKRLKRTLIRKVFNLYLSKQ

| Structure (SMILES) | IC50 (EED (1-441)-His protein; [3]) | IC50 [1, 4] | IC50 [2, 5] | IC50 (EED (1-441)-His protein; [6]) | IC50 [1, 7] | IC50 [2, 8] | further results |
| --- | --- | --- | --- | --- | --- | --- | --- |
| COc1ccccc1CNc1ccc(-c2ccc(Cn3ccnc3)cc2)c2nncn12 [Example 76, 8-(4-((1H-imidazol-1-yl)methyl)phenyl)-N-(2-methoxybenzyl)-[1,2,4] triazolo[4,3-a]pyridin-5-amine] | 41.9 nM | 420 nM | 133 nM | – | – | – | – |
| COc1cccc(F)c1CNc1ccc(-c2cnccn2)c2nncn12 [Example 325, N-(2-fluoro-6-methoxybenzyl)-8-(pyrazin-2-yl)-[1,2,4]triazolo[4,3-a]pyridin-5-amine] | – | – | – | 37 nM | 141 nM | 33.8 nM | – |
| COc1cccc(F)c1CNc1ccc(-c2cnc(N3CCN(C(C)C)CC3)nc2)c2nncn12 [Example 131, N-(2-fluoro-6-methoxybenzyl)-8-(2-(4-isopropylpiperazin-1-yl)pyrimidin-5-yl)-[1,2,4]triazolo[4,3-a] pyridin-5-amine] | 32.2 nM | 181 nM | 81.2 nM | – | – | – | – |
| COc1cncc(-c2ccc(NCc3c(F)cccc3OC)n3cnnc23)c1 [Example 148, N-(2-fluoro-6-methoxybenzyl)-8-(5-methoxypyridin-3-yl)-[1,2,4] triazolo[4,3-a]pyridin-5-amine] | 28.9 nM | 99.8 nM | 60.6 nM | – | – | – | – |
| COc1cccc(F)c1CNc1ccc(-c2cncc(C)c2)c2nncn12 [Example 165, N-(2-fluoro-6-methoxybenzyl)-8-(5-methylpyridin-3-yl)-[1,2,4]triazolo[4,3-a]pyridin-5-amine] | 15.9 nM | 38 nM | 14 nM | – | – | – | – |
| COc1cc(F)cc(F)c1CNc1ccc(-c2cccnc2)c2nncn12 [Example 220, N-(2,4-difluoro-6-methoxybenzyl)-8-(pyridin-3-yl)-[1,2,4]triazolo[4,3-a]pyridin-5-amine] | – | – | – | 46 nM | 142 nM | 55.6 nM | – |
| CCc1nc(-c2ccc(NCc3c(F)cccc3OC)n3cnnc23)no1 [Example 10, 8-(5-Ethyl-1,2,4-oxadiazol-3-yl)-N-(2-fluoro-6-methoxybenzy)-[1,2,4]triazolo[4,3-a]pyridin-5-amine] | 61.1 nM | 198 nM | – | – | – | – | IC50 ([2]; read-out: (c) IC50, ELISA Qualified): 9.3 nM |
| COc1cccc(F)c1CNc1ccc(-c2ccc(C(C)C)nc2C)c2nncn12 [Example 351, N-(2-fluoro-6-methoxybenzyl)-8-(6-isopropyl-2-methylpyridin-3-yl)-[1,2,4]triazolo[4,3-a]pyridin-5-amine] | – | – | – | – | – | – | IC50 (EED (1-441)-His protein; [9]): 23.4 nM; IC50 [1, 10]: 22.9 nM; IC50 [2, 11]: 15.5 nM |
| COc1ccccc1CNc1ccc(-c2ccc(N3CCN(C(C)C)CC3)nc2)c2nncn12 [Example 87, 8-(6-(4-isopropylpiperazin-1-yl)pyridin-3-yl)-N-(2-methoxybenzyl)-[1,2,4] triazolo[4,3-a]pyridin-5-amine] | 39.2 nM | 239 nM | 90.1 nM | – | – | – | – |
| COc1cccc(F)c1CNc1ccc(-c2cccnc2CO)c2nncn12 [Example 303, (3-(5-((2-fluoro-6-methoxy benzyl)amino)-[1,2,4]triazolo[4,3-a]pyridin-8-yl)pyridin-2-yl)methanol] | – | – | – | 27.6 nM | 20.4 nM | 15.5 nM | – |
| COc1ncc(-c2ccc(NCc3ccccc3OC)n3cnnc23)cn1 [Example 52, N-(2-methoxybenzyl)-8-(2-methoxypyrimidin-5-yl)-[1,2,4]triazolo[4,3-a]pyridin-5-amine] | 89.4 nM | 735 nM | 106 nM | – | – | – | – |
| COc1cccc(F)c1CNc1ccc(-n2cncn2)c2nncn12 [Example 358, N-(2-fluoro-6-methoxybenzyl)-8-(1H-1,2,4-triazol-1-yl)-[1,2,4]triazolo[4,3-a] pyridin-5-amine] | – | – | – | – | – | – | IC50 (EED (1-441)-His protein; [9]): 17.1 nM; IC50 [1, 10]: 286 nM; IC50 [2, 11]: 19.5 nM |
| COc1cccc(F)c1CNc1ccc(-c2ccnc(CCO)c2)c2nncn12 [Example 175, 2-(4-(5-((2-fluoro-6-methoxybenzyl)amino)-[1,2,4]triazolo[4,3-a]pyridin-8-yl)pyridin-2-yl)ethanol] | – | – | – | 35.9 nM | 148 nM | 23.9 nM | – |
| COc1cccc(F)c1CNc1ccc(-n2cc(C)nc2C)c2nncn12 [Example 7, 8-(2,4-Dimethyl-1H-imidazol-1-yl)-N-(2-fluoro-6-methoxybenzyl)-[1,2,4]triazolo[4,3-a]pyridin-5-amine] | 18.7 nM | 11.4 nM | 10.1 nM | – | – | – | – |
| COc1cccc(F)c1CNc1ccc(-c2ccccn2)c2nncn12 [Example 5, N-(2-Fluoro-6-methoxybenzyl)-8-(pyridin-2-yl)-[1,2,4]triazolo[4,3-a]pyridin-5-amine] | 48.2 nM | 137 nM | 42.6 nM | – | – | – | – |
| COc1ccccc1CNc1ccc(-c2ccc(S(C)(=O)=O)nc2)c2nncn12 [Example 61, N-(2-methoxybenzyl)-8-(6-(methylsulfonyl)pyridin-3-yl)-[1,2,4]triazolo[4,3-a] pyridin-5-amine] | 43.8 nM | 538 nM | 61.9 nM | – | – | – | – |
| COc1cccc(F)c1CNc1ccc(-c2cnccc2C(F)F)c2nncn12 [Example 258, 8-(4-(difluoromethyl)pyridin-3-yl)-N-(2-fluoro-6-methoxybenzyl)-[1,2,4] triazolo [4,3-a]pyridin-5-amine] | – | – | – | 24.5 nM | 71.6 nM | 16.7 nM | – |
| COc1c(F)ccc(F)c1CNc1ccc(-c2cccnc2C)c2nncn12 [Example 327, N-(3,6-difluoro-2-methoxybenzyl)-8-(2-methylpyridin-3-yl)-[1,2,4]triazolo[4,3-a] pyridin-5-amine] | – | – | – | 48.3 nM | 172 nM | 51.9 nM | – |
| COc1cccc(F)c1CNc1ccc(-c2cn(C)nc2C(F)(F)F)c2nncn12 [Example 247, N-(2-fluoro-6-methoxybenzyl)-8-(1-methyl-3-(trifluoromethyl)-1H-pyrazol-4-yl)-[1,2,4]triazolo[4,3-a] pyridin-5-amine] | – | – | – | 35.8 nM | 700 nM | 42.7 nM | – |
| COc1cccc(F)c1CNc1ccc(-c2ccc(S(=O)(=O)C3CCN(C)CC3)cc2)c2nncn12 [Example 133, N-(2-fluoro-6-methoxybenzyl)-8-(4-((1-methylpiperidin-4-yl)sulfonyl)phenyl)-[1,2,4]triazolo[4,3-a] pyridin-5-amine] | 5 nM | 65.8 nM | 5.3 nM | – | – | – | – |
| COc1cccc(F)c1CNc1ccc(-c2ccc(C(=O)N3CCCC3)cc2)c2nncn12 [Example 107, (4-(5-((2-fluoro-6-methoxy benzyl)amino)-[1,2,4]triazolo[4,3-a]pyridin-8-yl)phenyl)(pyrrolidin-1-yl) methanone] | 21.4 nM | 108 nM | 12.6 nM | – | – | – | – |

Now from value to compound, other results behind:

| IC50 (EED (1-441)-His protein; [3]) | IC50 [1, 4] | IC50 [2, 5] | IC50 (EED (1-441)-His protein; [6]) | IC50 [1, 7] | IC50 [2, 8] | Structure (SMILES) | further results |
| --- | --- | --- | --- | --- | --- | --- | --- |
| – | – | – | 9.1 nM | 32.3 nM | 7.1 nM | COc1ncc(-c2ccc(NCc3c(F)cccc3OC)n3cnnc23)c(C)n1 [Example 322, N-(2-fluoro-6-methoxybenzyl)-8-(2-methoxy-4-methylpyrimidin-5-yl)-[1,2,4]triazolo[4,3-a]pyridin-5-amine] | – |
| – | – | – | 6.5 nM | 18.8 nM | 6.5 nM | COc1cccc(F)c1CNc1ccc(-c2ccc(C(=O)N(C)C)cc2F)c2nncn12 [Example 178, 3-fluoro-4-(5-((2-fluoro-6-methoxybenzyl)amino)-[1,2,4]triazolo[4,3-a]pyridin-8-yl)-N,N-dimethyl benzamide] | – |
| – | – | – | 15.7 nM | 215 nM | 17.3 nM | COc1cccc(F)c1CNc1ccc(-c2cnc(C)cc2C(F)F)c2nncn12 [Example 316, 8-(4-(difluoromethyl)-6-methylpyridin-3-yl)-N-(2-fluoro-6-methoxybenzyl)-[1,2,4]triazolo[4,3-a]pyridin-5-amine] | – |
| – | – | – | 15.8 nM | 75.1 nM | 12.1 nM | COc1cccc(F)c1CNc1ccc(-c2cc(F)ncc2C)c2nncn12 [Example 279, 8-(2-fluoro-5-methylpyridin-4-yl)-N-(2-fluoro-6-methoxybenzyl)-[1,2,4] triazolo[4,3-a]pyridin-5-amine] | – |
| – | – | – | 13.6 nM | 56.1 nM | 16.6 nM | COc1ccc(-c2ccc(NCc3c(F)cccc3OC)n3cnnc23)c(C)n1 [Example 310, N-(2-fluoro-6-methoxybenzyl)-8-(6-methoxy-2-methylpyridin-3-yl)-[1,2,4] triazolo[4,3-a]pyridin-5-amine] | – |
| – | – | – | 53.6 nM | 71.1 nM | 56.4 nM | COc1cccc(F)c1CNc1ccc(-c2c[nH]nc2C)c2nncn12 [Example 189, N-(2-fluoro-6-methoxybenzyl)-8-(3-methyl-1H-pyrazol-4-yl)-[1,2,4] triazolo[4,3-a]pyridin-5-amine] | – |
| 25.2 nM | 20.4 nM | 33.3 nM | – | – | – | COc1cccc(F)c1CNc1ccc(-c2cccnc2F)c2nncn12 [Example 166, N-(2-fluoro-6-methoxybenzyl)-8-(2-fluoropyridin-3-yl)-[1,2,4]triazolo[4,3-a]pyridin-5-amine] | – |
